Results as given in patent US20260000642A1 (Tay Therapeutics Limited, priority 2022, published 2026).
Where “and” joins values, the source holds several entries; their conditions need not be identical. Equal entries are not always repeated.

Tested on: collagen-induced arthritis in Lewis rats
Assay: Collagen-induced arthritis (CIA) model in rats: body weight, paw volume, clinical scores, clinical observations; as to Detailed Clinical Scores, left forelimb: key of the grades not given here; as to Detailed Clinical Scores, left hind limb: key of the grades not given here; as to Detailed Clinical Scores, right forelimb: key of the grades not given here; as to Detailed Clinical Scores, right hind limb: key of the grades not given here; as to Detailed Clinical Scores, score: key of the grades not given here
Details: for Detailed Clinical Scores, left forelimb / Detailed Clinical Scores, right forelimb / Detailed Clinical Scores, right hind limb / Detailed Clinical Scores, left hind limb / Detailed Clinical Scores, score: CIA, per animal ID

Structure (SMILES): CNC(=O)c1[nH]c(C(=O)NC2CCC2)cc1O[C@@H](C)c1ccccc1 [Example 101, N^5-cyclobutyl-N^2-methyl-3-(1-phenylethoxy)-1H-pyrrole-2,5-dicarboxamide]
- Average animal body weight percent change (Day 5, CIA + 3 mg/kg): 1.81%
- Mean animal body weight (Day 5, CIA + 3 mg/kg): 168 g
- Average animal body weight percent change (Day 5, CIA + 10 mg/kg): 1.43%
- Mean animal body weight (Day 5, CIA + 10 mg/kg): 165 g
- Average animal body weight percent change (Day 5, CIA + 30 mg/kg): 0.90%
- Mean animal body weight (Day 5, CIA + 30 mg/kg): 163 g
- Detailed Clinical Scores, left forelimb (Day 6, 3 mg/kg): 0
- Detailed Clinical Scores, right forelimb (Day 6, 3 mg/kg): 0
- Detailed Clinical Scores, right hind limb (Day 6, 3 mg/kg): 0
- Detailed Clinical Scores, left forelimb (Day 6, 10 mg/kg): 0
- Detailed Clinical Scores, left hind limb (Day 6, 10 mg/kg): 0
- Detailed Clinical Scores, right forelimb (Day 6, 10 mg/kg): 0
- Detailed Clinical Scores, right hind limb (Day 6, 10 mg/kg): 0
- Detailed Clinical Scores, score (Day 6, 10 mg/kg): 0
- Detailed Clinical Scores, left forelimb (Day 6, 30 mg/kg): 0
- Detailed Clinical Scores, left hind limb (Day 6, 30 mg/kg): 0
- Detailed Clinical Scores, right forelimb (Day 6, 30 mg/kg): 0
- Detailed Clinical Scores, right hind limb (Day 6, 30 mg/kg): 0
- Detailed Clinical Scores, score (Day 6, 30 mg/kg): 0
- Average animal body weight percent change (Day 6, CIA + 3 mg/kg): 3.40%
- Mean animal body weight (Day 6, CIA + 3 mg/kg): 171 g
- Average animal body weight percent change (Day 6, CIA + 10 mg/kg): 1.77%
- Mean animal body weight (Day 6, CIA + 10 mg/kg): 165 g
- Average animal body weight percent change (Day 6, CIA + 30 mg/kg): 0.03%
- Mean animal body weight (Day 6, CIA + 30 mg/kg): 162 g
- Average animal body weight percent change (Day 7, CIA + 3 mg/kg): 4.80%
- Mean animal body weight (Day 7, CIA + 3 mg/kg): 173 g
- Average animal body weight percent change (Day 7, CIA + 10 mg/kg): 2.23%
- Mean animal body weight (Day 7, CIA + 10 mg/kg): 166 g
- Average animal body weight percent change (Day 7, CIA + 30 mg/kg): 0.29%
- Mean animal body weight (Day 7, CIA + 30 mg/kg): 162 g
- Average animal body weight percent change (Day 8, CIA + 3 mg/kg): 4.69%
- Mean animal body weight (Day 8, CIA + 3 mg/kg): 173 g
- Average animal body weight percent change (Day 8, CIA + 10 mg/kg): 2.82%
- Mean animal body weight (Day 8, CIA + 10 mg/kg): 167 g
- Average animal body weight percent change (Day 8, CIA + 30 mg/kg): 1.21%
- Mean animal body weight (Day 8, CIA + 30 mg/kg): 164 g
- Average animal body weight percent change (Day 9, CIA + 3 mg/kg): 5.59%
- Mean animal body weight (Day 9, CIA + 3 mg/kg): 174 g
- Average animal body weight percent change (Day 9, CIA + 10 mg/kg): 4.86%
- Mean animal body weight (Day 9, CIA + 10 mg/kg): 170 g
- Average animal body weight percent change (Day 9, CIA + 30 mg/kg): 2.81%
- Mean animal body weight (Day 9, CIA + 30 mg/kg): 166 g
- Average animal body weight percent change (Day 10, CIA + 3 mg/kg): 6.84%
- Mean animal body weight (Day 10, CIA + 3 mg/kg): 176 g
- Average animal body weight percent change (Day 10, CIA + 10 mg/kg): 4.86%
- Mean animal body weight (Day 10, CIA + 10 mg/kg): 170 g
- Average animal body weight percent change (Day 10, CIA + 30 mg/kg): 2.27%
- Mean animal body weight (Day 10, CIA + 30 mg/kg): 166 g
- Average animal body weight percent change (Day 11, CIA + 3 mg/kg): 7.79%
- Mean animal body weight (Day 11, CIA + 3 mg/kg): 178 g
- Average animal body weight percent change (Day 11, CIA + 10 mg/kg): 5.09%
- Mean animal body weight (Day 11, CIA + 10 mg/kg): 171 g
- Average animal body weight percent change (Day 11, CIA + 30 mg/kg): 2.22%
- Mean animal body weight (Day 11, CIA + 30 mg/kg): 165 g
- Detailed Clinical Scores, left forelimb (Day 12, 3 mg/kg): 0
- Detailed Clinical Scores, left hind limb (Day 12, 3 mg/kg, 3 mg/kg): 1
- Detailed Clinical Scores, right forelimb (Day 12, 3 mg/kg, 3 mg/kg): 0 (6×) and 1 (2×)
- Detailed Clinical Scores, left forelimb (Day 12, 10 mg/kg): 0
- Detailed Clinical Scores, right forelimb (Day 12, 10 mg/kg): 0
- Detailed Clinical Scores, left hind limb (Day 12, 10 mg/kg, 10 mg/kg): 1 (2×) and 0 (2×)
- Detailed Clinical Scores, right hind limb (Day 12, 10 mg/kg, 10 mg/kg): 2 and 0 (2×)
- Detailed Clinical Scores, score (Day 12, 10 mg/kg, 10 mg/kg): 1 (2×) and 2 and 0
- Detailed Clinical Scores, left forelimb (Day 12, 30 mg/kg): 0
- Detailed Clinical Scores, left hind limb (Day 12, 30 mg/kg): 0
- Detailed Clinical Scores, right forelimb (Day 12, 30 mg/kg): 0
- Detailed Clinical Scores, right hind limb (Day 12, 30 mg/kg, 30 mg/kg): 1 and 0 (5×)
- Detailed Clinical Scores, score (Day 12, 30 mg/kg, 30 mg/kg): 1 and 0 (4×)
- Average animal body weight percent change (Day 12, CIA + 3 mg/kg): 8.18%
- Mean animal body weight (Day 12, CIA + 3 mg/kg): 178 g
- Average animal body weight percent change (Day 12, CIA + 10 mg/kg): 4.18%
- Mean animal body weight (Day 12, CIA + 10 mg/kg): 169 g
